Test results as given in patent US7537891B2, “Identification of polynucleotides for predicting activity of compounds that interact with and/or modulate protein tyrosine kinases and/or protein tyrosine kinase pathways in breast cells” (Bristol-Myers Squibb Company, priority 2002, dated 2009).

Legend:
Experiment in all cases: In vitro cytotoxicity assay (MTS)
Assay type in all cases: cell-based, human
Parameters in all cases: key to True Class: “S” represents Sensitive; “R” represents Resistant
[1] = test system: HCC1428 breast cell line
Procedure: (§1) The protein tyrosine kinase inhibitor compound (described in international application WO 00/62778, published Oct. 26, 2000) was tested for cytotoxicity in vitro against a panel of twenty-three human breast cell lines available from the American Type Culture Collection, ATCC, except H3396, which was obtained from Pacific Northwest Research Institute, Seattle Wash. The MCF7/Her2 cell line was established by stable transfection of MCF7 cells with the HER2 gene. Cytotoxicity was assessed in cells by the MTS (3-(4,5-dimethylthiazol-2-yl)-5-(3-carboxymethoxyphenyl)-2-(4-sulphenyl)-2H-tetrazolium, inner salt) assay (T. L. Riss et al., 1992, Mol. Biol. Cell, 3 (Suppl.):184a).
(§2) To carry out the assays, the breast cells were plated at 4,000 cells/well in 96 well microtiter plates, and 24 hours later, serially diluted drugs were added. The concentration range for the protein tyrosine kinase inhibitor compound BMS-A used in the cytotoxicity assay was from 5 μg/ml to 0.0016 μg/ml (roughly 10 μM to 0.0032 μM).
(§3) The cells were incubated at 37° C. for 72 hours at which time the tetrazolium dye, MTS (333 μg/ml final concentration), in combination with the electron coupling agent phenazine methosulfate (25 μM final concentration), was added. A dehydrogenase enzyme in live cells reduces the MTS to a form that absorbs light and can be quantified spectrophotometrically at 492 nM. The greater the absorbency the greater the number of live cells. The results are expressed as an IC50, which is the drug concentration required to inhibit cell proliferation (i.e. absorbance at 492 nm) to 50% of that of untreated control cells. The mean IC50 and standard deviation (SD) from multiple tests for each cell line were calculated.

[2] = test system: BT-474 breast cell line
Procedure: as §1, §2, §3

[3] = test system: SK-BR-3 breast cell line
Procedure: as §1, §2, §3

[4] = test system: HCC70 breast cell line
Procedure: as §1, §2, §3

[5] = test system: MDA-MB-468 breast cell line
Procedure: as §1, §2, §3

[6] = test system: AU-565 breast cell line
Procedure: as §1, §2, §3

[7] = test system: MDA-MB-435S breast cell line
Procedure: as §1, §2, §3

[8] = test system: H3396 breast cell line
Procedure: as §1, §2, §3

[9] = test system: MDA-MB-157 breast cell line
Procedure: as §1, §2, §3

[10] = test system: HCC38 breast cell line
Procedure: as §1, §2, §3

[11] = test system: MDA-MB-453 breast cell line
Procedure: as §1, §2, §3

[12] = test system: HCC1954 breast cell line
Procedure: as §1, §2, §3

[13] = test system: BT-549 breast cell line
Procedure: as §1, §2, §3

[14] = test system: ZR-75-1 breast cell line
Procedure: as §1, §2, §3

[15] = test system: ZR-75-30 breast cell line
Procedure: as §1, §2, §3

[16] = 72 hours, mean of 2 to 5 determinations, read-out: mean IC50 (μM) to BMS-A
[17] = assigned as in Table 1, based on the IC50 results for BMS-A
[18] = resistance/sensitivity to BMS-A based on IC50

Cc1nc(Nc2ncc(C(=O)Nc3c(C)cccc3Cl)s2)cc(N2CCN(CCO)CC2)n1 [BMS-A]
IC50 [1, 16]: 7.29 µM | True Class [1, 17]: R | Classification [1, 18]: Resistant (those having a log10(IC50) above the mean log10(IC50) were considered to be resistant) | True Class ([2]; BT474, assigned as in Table 1, based on the IC50 results for BMS-A): R | IC50 ([2]; BT-474, 72 hours, mean of 2 to 5 determinations, read-out: mean IC50 (μM) to BMS-A): 6.74 µM | Classification ([2]; BT-474, resistance/sensitivity to BMS-A based on IC50): Resistant (those having a log10(IC50) above the mean log10(IC50) were considered to be resistant) | IC50 ([3]; SK-BR-3, 72 hours, mean of 2 to 5 determinations, read-out: mean IC50 (μM) to BMS-A): 2.75 µM | Classification ([3]; SK-BR-3, resistance/sensitivity to BMS-A based on IC50): Resistant (those having a log10(IC50) above the mean log10(IC50) were considered to be resistant) | True Class ([3]; SkBr3, assigned as in Table 1, based on the IC50 results for BMS-A): R | IC50 [4, 16]: 0.0337 µM | True Class [4, 17]: S | Classification [4, 18]: Sensitive (The cell lines with a log10(IC50) below the mean log10(IC50) were defined as sensitive to the compound) | IC50 ([5]; MDA-MB-468, 72 hours, mean of 2 to 5 determinations, read-out: mean IC50 (μM) to BMS-A): 7.13 µM | Classification ([5]; MDA-MB-468, resistance/sensitivity to BMS-A based on IC50): Resistant (those having a log10(IC50) above the mean log10(IC50) were considered to be resistant) | True Class ([5]; MDAMB468, assigned as in Table 1, based on the IC50 results for BMS-A): R | True Class ([6]; AU565, assigned as in Table 1, based on the IC50 results for BMS-A): R | IC50 ([6]; AU-565, 72 hours, mean of 2 to 5 determinations, read-out: mean IC50 (μM) to BMS-A): 5.24 µM | Classification ([6]; AU-565, resistance/sensitivity to BMS-A based on IC50): Resistant (those having a log10(IC50) above the mean log10(IC50) were considered to be resistant) | IC50 ([7]; MDA-MB-435S, 72 hours, mean of 2 to 5 determinations, read-out: mean IC50 (μM) to BMS-A): 7.78 µM | Classification ([7]; MDA-MB-435S, resistance/sensitivity to BMS-A based on IC50): Resistant (those having a log10(IC50) above the mean log10(IC50) were considered to be resistant) | True Class ([7]; MDAMB435S, assigned as in Table 1, based on the IC50 results for BMS-A): R | IC50 [8, 16]: 8.2 µM | True Class [8, 17]: R | Classification [8, 18]: Resistant (those having a log10(IC50) above the mean log10(IC50) were considered to be resistant) | IC50 ([9]; MDA-MB-157, 72 hours, mean of 2 to 5 determinations, read-out: mean IC50 (μM) to BMS-A): 0.0055 µM | Classification ([9]; MDA-MB-157, resistance/sensitivity to BMS-A based on IC50): Sensitive (The cell lines with a log10(IC50) below the mean log10(IC50) were defined as sensitive to the compound) | True Class ([9]; MDAMB157, assigned as in Table 1, based on the IC50 results for BMS-A): S | IC50 [10, 16]: 6.63 µM | True Class [10, 17]: R | Classification [10, 18]: Resistant (those having a log10(IC50) above the mean log10(IC50) were considered to be resistant) | IC50 ([11]; MDA-MB-453, 72 hours, mean of 2 to 5 determinations, read-out: mean IC50 (μM) to BMS-A): > 9.52 µM | Classification ([11]; MDA-MB-453, resistance/sensitivity to BMS-A based on IC50): Resistant (those having a log10(IC50) above the mean log10(IC50) were considered to be resistant) | True Class ([11]; MDAMB453, assigned as in Table 1, based on the IC50 results for BMS-A): R | IC50 [12, 16]: 0.0242 µM | True Class [12, 17]: S | Classification [12, 18]: Sensitive (The cell lines with a log10(IC50) below the mean log10(IC50) were defined as sensitive to the compound) | True Class ([13]; BT549, assigned as in Table 1, based on the IC50 results for BMS-A): R | IC50 ([13]; BT-549, 72 hours, mean of 2 to 5 determinations, read-out: mean IC50 (μM) to BMS-A): 9.06 µM | Classification ([13]; BT-549, resistance/sensitivity to BMS-A based on IC50): Resistant (those having a log10(IC50) above the mean log10(IC50) were considered to be resistant) | IC50 ([14]; ZR-75-1, 72 hours, mean of 2 to 5 determinations, read-out: mean IC50 (μM) to BMS-A): > 9.52 µM | Classification ([14]; ZR-75-1, resistance/sensitivity to BMS-A based on IC50): Resistant (those having a log10(IC50) above the mean log10(IC50) were considered to be resistant) | True Class ([14]; Zr-75-1, assigned as in Table 1, based on the IC50 results for BMS-A): R | IC50 ([15]; ZR-75-30, 72 hours, mean of 2 to 5 determinations, read-out: mean IC50 (μM) to BMS-A): 9.26 µM | Classification ([15]; ZR-75-30, resistance/sensitivity to BMS-A based on IC50): Resistant (those having a log10(IC50) above the mean log10(IC50) were considered to be resistant) | True Class ([15]; Zr-75-30, assigned as in Table 1, based on the IC50 results for BMS-A): R
